The text below walks through data of ChEMBL document CHEMBL4265917, “Antibacterial and antioxidant activities for natural and synthetic dual-active compounds” (Eur J Med Chem, 2018).

By IC50 is commonly meant the concentration that gives 50% inhibition. As a reminder, the MIC is the lowest concentration that inhibits growth of the organism. Read a high MIC as weaker potency.

Values after ≈ are worked out from the molar mass of the structure shown.

Format in all cases: functional
The nature of assay [1]: Antioxidant activity assessed as DPPH free radical scavenging activity. (In general: Loss of DPPH colour is used to gauge radical scavenging.)
A further assay deals with Staphylococcus aureus. In words: Antibacterial activity against Staphylococcus aureus.
The test system of a further assay is Escherichia coli. Description: Antibacterial activity against Escherichia coli.

For the compound `COc1cccc2c1OCC(c1nnn(Cc3cn(Cc4ccccc4)nn3)n1)=C2`, the IC50 in assay [1] was 78.74 µg/mL (≈ 196 µM). Further, the values for the MIC against Staphylococcus aureus and against Escherichia coli were 10.5 µg/mL (≈ 26.2 µM) and 9.5 µg/mL (≈ 23.7 µM), respectively.
